Patent EP4578856A1, “HETEROCYCLIC COMPOUND” (Ubience Inc., priority 2022, dated 2024)

Target: ROCK2 protein (Homo sapiens, UniProt O75116)
Test: Degradation inducing activity of ROCK2 protein in HUVEC cells, Western blotting (Simple Western JESS)
Type: cell-based
Set-up: endogenous in cells; host or cells: HUVEC (ATCC CRL-1730)
Conditions: HUVEC, 24 h; for inhibition at 1 µM: degradation rate at 1 µM; for inhibition at 10 µM: degradation rate at 10 µM
Method in brief: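 HUVEC cells treated 24 h with compound at 10 µM or 1 µM, then lysed; ROCK2 quantified by capillary Western (Simple Western JESS) using rabbit mAb D1B1, normalized to total loaded protein. Degradation rate (%) calculated relative to DMSO control set at 100%, binned A ≥75%, B 50–75%, C 25–50%, D <25%.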

Sequence of ROCK2 protein (O75116 whole entry): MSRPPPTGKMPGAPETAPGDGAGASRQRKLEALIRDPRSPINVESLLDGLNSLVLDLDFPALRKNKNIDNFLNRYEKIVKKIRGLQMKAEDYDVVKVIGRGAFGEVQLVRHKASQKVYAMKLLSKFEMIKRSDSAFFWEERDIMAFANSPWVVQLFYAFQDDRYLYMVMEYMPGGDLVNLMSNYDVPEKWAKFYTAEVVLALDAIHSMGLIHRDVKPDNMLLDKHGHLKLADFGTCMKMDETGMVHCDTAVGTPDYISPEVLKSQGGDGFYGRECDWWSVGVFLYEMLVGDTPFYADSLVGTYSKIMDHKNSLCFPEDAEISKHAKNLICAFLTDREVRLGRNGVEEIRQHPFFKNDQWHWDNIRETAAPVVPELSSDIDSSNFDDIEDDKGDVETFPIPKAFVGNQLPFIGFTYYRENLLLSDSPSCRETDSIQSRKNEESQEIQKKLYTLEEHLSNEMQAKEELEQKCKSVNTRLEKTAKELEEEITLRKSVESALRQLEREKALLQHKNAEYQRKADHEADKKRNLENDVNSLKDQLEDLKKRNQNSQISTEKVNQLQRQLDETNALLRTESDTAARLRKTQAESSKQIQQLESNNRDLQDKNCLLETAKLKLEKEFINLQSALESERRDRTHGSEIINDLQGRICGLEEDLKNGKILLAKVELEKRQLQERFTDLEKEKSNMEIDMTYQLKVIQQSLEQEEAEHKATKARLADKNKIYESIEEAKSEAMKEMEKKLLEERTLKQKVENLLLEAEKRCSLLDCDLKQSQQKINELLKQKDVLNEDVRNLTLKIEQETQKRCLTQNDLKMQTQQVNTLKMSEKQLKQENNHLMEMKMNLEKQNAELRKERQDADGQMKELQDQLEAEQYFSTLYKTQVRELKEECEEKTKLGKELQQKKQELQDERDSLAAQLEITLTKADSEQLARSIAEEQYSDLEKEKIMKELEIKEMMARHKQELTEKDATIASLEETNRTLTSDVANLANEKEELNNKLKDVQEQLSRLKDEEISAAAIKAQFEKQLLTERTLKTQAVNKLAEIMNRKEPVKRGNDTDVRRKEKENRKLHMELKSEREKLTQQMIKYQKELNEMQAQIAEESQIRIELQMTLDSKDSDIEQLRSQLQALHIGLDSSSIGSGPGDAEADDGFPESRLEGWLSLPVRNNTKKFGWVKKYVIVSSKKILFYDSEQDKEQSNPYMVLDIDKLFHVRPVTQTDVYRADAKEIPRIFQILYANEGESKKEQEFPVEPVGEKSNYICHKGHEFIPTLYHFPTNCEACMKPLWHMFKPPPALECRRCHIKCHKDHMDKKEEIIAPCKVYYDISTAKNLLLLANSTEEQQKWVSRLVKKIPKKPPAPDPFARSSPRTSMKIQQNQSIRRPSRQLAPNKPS

| SMILES | inhibition at 1 µM [%] | inhibition at 10 µM [%] |
| --- | --- | --- |
| COC[C@H]1CN[C@H](C)CN1CC(=O)N1CC(C)(C)c2ncc(Cc3ccccc3OCCOCCN[C@H](C)c3ccc(C(=O)Nc4ccncc4)cc3)cc21 [Example 64, 4-((R)-1-((2-(2-(2-((1-(2-((2R,5R)-2-(Methoxymethyl)-5-methylpiperazin-1-yl)acetyl)-3,3-dimethyl-2,3-dihydro-1H-pyrrolo[3,2-b]pyridin-6-yl)methyl)phenoxy)ethoxy)ethyl)amino)ethyl)-N-(pyridin-4-yl)benzamide] | < 25 | 50 to 75 |
| COC[C@H]1CN[C@H](C)CN1CC(=O)N1CC(C)(C)c2ncc(Cc3cccc(OCCOCCN[C@H](C)c4ccc(C(=O)Nc5ccncc5)cc4)c3)cc21 [Example 43, 4-((R)-1-((2-(2-(3-((1-(2-((2R,5R)-2-(Methoxymethyl)-5-methylpiperazin-1-yl)acetyl)-3,3-dimethyl-2,3-dihydro-1H-pyrrolo[3,2-b]pyridin-6-yl)methyl)phenoxy)ethoxy)ethyl)amino)ethyl)-N-(pyridin-4-yl)benzamide] | 25 to 50 | ≥ 75 |
| COC[C@H]1CN[C@H](C)CN1CC(=O)N1CC(C)(C)c2ncc(Cc3cccc(OCCOCCOCCOCCN[C@H](C)c4ccc(C(=O)Nc5ccncc5)cc4)c3)cc21 [Example 45, 4-((R)-14-(3-((1-(2-((2R,5R)-2-(Methoxymethyl)-5-methylpiperazin-1-yl)acetyl)-3,3-dimethyl-2,3-dihydro-1H-pyrrolo[3,2-b]pyridin-6-yl)methyl)phenoxy)-6,9,12-trioxa-3-azatetradecan-2-yl)-N-(pyridin-4-yl)benzamide] | < 25 | 50 to 75 |
| C[C@@H]1CN(CC(=O)N2CC(C)(C)c3ncc(Cc4ccc(F)cc4)cc32)[C@@H](CN(C)CCOCCOCCOCCOCCOCCNC[C@@H](C(=O)Nc2ccc3cnccc3c2)c2ccccc2)CN1 [Example 19, (S)-1-((2R,5R)-1-(2-(6-(4-Fluorobenzyl)-3,3-dimethyl-2,3-dihydro-1H-pyrrolo[3,2-b]pyridin-1-yl)-2-oxoethyl)-5-methylpiperazin-2-yl)-N-(isoquinolin-6-yl)-2-methyl-22-phenyl-5,8,11,14,17-pentaoxa-2,20-diazatricosan-23-amide] | 25 to 50 | ≥ 75 |
| COC[C@H]1CN[C@H](C)CN1CC(=O)N1CC(C)(C)c2ncc(Cc3cccc(OCCOCCOCCOCCOCCN[C@H](Cc4cccc(F)c4)C(=O)Nc4ccc(-c5ccncc5)cc4)c3)cc21 [Example 53, (R)-2-(3-Fluorobenzyl)-17-(3-((1-(2-((2R,5R)-2-(methoxymethyl)-5-methylpiperazin-1-yl)acetyl)-3,3-dimethyl-2,3-dihydro-1H-pyrrolo[3,2-b]pyridin-6-yl)methyl)phenoxy)-N-(4-(pyridin-4-yl)phenyl)-6,9,12,15-tetraoxa-3-azaheptadecanamide] | < 25 | 50 to 75 |
| C[C@@H]1CN(CC(=O)N2CC(C)(C)c3ncc(Cc4ccc(F)cc4)cc32)[C@@H](CN(C)CCOCCOCCOCCOCCOCCOCCOCCN[C@H](Cc2cccc(F)c2)C(=O)Nc2ccc(-c3ccncc3)cc2)CN1 [Example 14, (R)-27-(3-Fluorobenzyl)-1-((2R,5R)-1-(2-(6-(4-fluorobenzyl)-3,3-dimethyl-2,3-dihydro-1H-pyrrolo[3,2-b]pyridin-1-yl)-2-oxoethyl)-5-methylpiperazin-2-yl)-2-methyl-N-(4-(pyridin-4-yl)phenyl)-5,8,11,14,17,20,23-heptaoxa-2,26-diazaoctacosan-28-amide] | 25 to 50 | ≥ 75 |
| COC[C@H]1CN[C@H](C)CN1CC(=O)N1CC(C)(C)c2ncc(Cc3ccccc3OCCOCCOCCOCCOCCOCCOCCNC[C@@H](C(=O)Nc3ccc4cnccc4c3)c3ccccc3)cc21 [Example 83, (S)-N-(Isoquinolin-6-yl)-1-(2-((1-(2-((2R,5R)-2-(methoxymethyl)-5-methylpiperazin-1-yl)acetyl)-3,3-dimethyl-2,3-dihydro-1H-pyrrolo[3,2-b]pyridin-6-yl)methyl)phenoxy)-23-phenyl-3,6,9,12,15,18-hexaoxa-21-azatetracosan-24-amide] | 50 to 75 | ≥ 75 |
